# Data as given in ChEMBL document CHEMBL1133201, “Synthesis and cytotoxic activity of acetogenin analogues” (Bioorg Med Chem Lett, 2000).
# Tested on: L1210
# Assay: In vitro inhibitory activity was tested against L1210 leukemia cells
# Type: functional, cell-based
# Conditions: Mus musculus
row,SMILES,IC50 [µM]
1,COc1ccc([C@H](O)COCCOC[C@H](O)C#CCCCCCCC[C@@H]2CC(CC(C)=O)C(=O)O2)cc1 (some centres undefined),> 10
2,CCCCCCCCCC[C@H](O)COCCOC[C@H](O)C#CCCCCCCC[C@@H]1CC(CC(C)=O)C(=O)O1 (some centres undefined),3.5
3,CCCCN(CCCC)[C@@H](O)COCCOC[C@@H](O)C#CCCCCCCC[C@@H]1CC(CC(C)=O)C(=O)O1 (some centres undefined),2.5
4,CC(=O)CC1C[C@@H](CCCCCCCC#C[C@@H](O)COCCOC[C@@H](O)c2ccc(C(F)(F)F)cc2)OC1=O (some centres undefined),3.3
5,CC(=O)CC1C[C@@H](CCCCCCCC#C[C@@H](O)COCCOC[C@@H](O)c2ccccc2)OC1=O (some centres undefined),19.8
6,CC(=O)CC1C[C@@H](CCCCCCCC#C[C@@H](O)COCCOC[C@@H](O)OC2CC[C@]3(C)C(=CC[C@@H]4[C@H]5CC[C@@H]([C@@H](C)CCCC(C)C)[C@]5(C)CC[C@H]43)C2)OC1=O (some centres undefined),2.8
7,CC(=O)CC1C[C@@H](CCCCCCCC#C[C@H](O)COCCOC[C@H](O)c2ccc3ccccc3c2)OC1=O (some centres undefined),3
8,COc1ccc([C@@H](O)COCCOC[C@@H](O)C#CCCCCCCC[C@@H]2CC(CC(C)=O)C(=O)O2)cc1 (some centres undefined),32
9,CC(=O)CC1C[C@@H](CCCCCCCC#C[C@@H](O)COCCOC[C@@H](O)N2CCCCC2)OC1=O (some centres undefined),28.7
10,CCCCCCCCCC[C@@H](O)COCCOC[C@@H](O)C#CCCCCCCC[C@@H]1CC(CC(C)=O)C(=O)O1 (some centres undefined),1
11,CC(=O)CC1C[C@@H](CCCCCCCC#C[C@H](O)COCCOC[C@H](O)c2ccccc2)OC1=O (some centres undefined),21.6
12,CCCCCCCCCCCC[C@@H](O)[C@H]1CC[C@H]([C@H](O)CCCC[C@H](O)CCCCC[C@@H](O)CC2=CC(C)OC2=O)O1 (some centres undefined) [ANNONACIN],0.042
13,CCCCCCCCCC[C@H](O)[C@H]1CC[C@H]([C@H]2CC[C@H]([C@H](O)CCCCCCCCCC[C@@H]3CC(CC(C)=O)C(=O)O3)O2)O1 (some centres undefined) [BULLATACINONE],0.016
14,CCCCCCCCCC[C@@H](O)[C@@H]1CC[C@@H]([C@@H]2CC[C@@H]([C@H](O)CCCCCCCCCC(O)CC3=CC(C)OC3=O)O2)O1 (some centres undefined) [BULLATACIN],0.0004
